ChEMBL document CHEMBL3217532, “New analyses of MIC90 data to aid antibacterial drug discovery” (2011)
Values after ≈ are worked out from the molar mass of the structure shown.

Tests used:
Assay type in all cases: functional
Pseudomonas aeruginosa [1] = experiment: Antimicrobial activity against Pseudomonas aeruginosa 1761-00
Pseudomonas aeruginosa [2] = experiment: Antimicrobial activity against Pseudomonas aeruginosa PA-4991
Pseudomonas aeruginosa [3] = experiment: Antimicrobial activity against Pseudomonas aeruginosa 1953-00
Pseudomonas aeruginosa [4] = experiment: Antimicrobial activity against Pseudomonas aeruginosa 1563-00
Pseudomonas aeruginosa [5] = experiment: Antimicrobial activity against Pseudomonas aeruginosa 1514-08
Pseudomonas aeruginosa [6] = experiment: Antimicrobial activity against Pseudomonas aeruginosa 1512-08
Pseudomonas aeruginosa [7] = experiment: Antimicrobial activity against Pseudomonas aeruginosa 1567-05
Pseudomonas aeruginosa [8] = experiment: Antimicrobial activity against Pseudomonas aeruginosa 1956-00
Pseudomonas aeruginosa [9] = experiment: Antimicrobial activity against Pseudomonas aeruginosa PA-4999
Pseudomonas aeruginosa [10] = experiment: Antimicrobial activity against Pseudomonas aeruginosa PA-4997
Pseudomonas aeruginosa [11] = experiment: Antimicrobial activity against Pseudomonas aeruginosa 1564-05
Pseudomonas aeruginosa [12] = experiment: Antimicrobial activity against Pseudomonas aeruginosa PA-4624
Pseudomonas aeruginosa [13] = experiment: Antimicrobial activity against Pseudomonas aeruginosa 1957-00
Pseudomonas aeruginosa [14] = experiment: Antimicrobial activity against Pseudomonas aeruginosa 1570-05
Pseudomonas aeruginosa [15] = experiment: Antimicrobial activity against Pseudomonas aeruginosa 1954-00
Pseudomonas aeruginosa [16] = experiment: Antimicrobial activity against Pseudomonas aeruginosa 1523-08
Pseudomonas aeruginosa [17] = experiment: Antimicrobial activity against Pseudomonas aeruginosa 1562-05
Pseudomonas aeruginosa [18] = experiment: Antimicrobial activity against Pseudomonas aeruginosa PA-4990
Pseudomonas aeruginosa [19] = experiment: Antimicrobial activity against Pseudomonas aeruginosa 1760-00
Pseudomonas aeruginosa [20] = experiment: Antimicrobial activity against Pseudomonas aeruginosa 1753-00
Pseudomonas aeruginosa [21] = experiment: Antimicrobial activity against Pseudomonas aeruginosa 1611-09
Pseudomonas aeruginosa [22] = experiment: Antimicrobial activity against Pseudomonas aeruginosa PA-1757
Pseudomonas aeruginosa [23] = experiment: Antimicrobial activity against Pseudomonas aeruginosa 1569-05
Pseudomonas aeruginosa [24] = experiment: Antimicrobial activity against Pseudomonas aeruginosa 1515-08
Pseudomonas aeruginosa [25] = experiment: Antimicrobial activity against Pseudomonas aeruginosa 1619-08
Pseudomonas aeruginosa [26] = experiment: Antimicrobial activity against Pseudomonas aeruginosa 1568-05
Pseudomonas aeruginosa [27] = experiment: Antimicrobial activity against Pseudomonas aeruginosa 1767-00
Pseudomonas aeruginosa [28] = experiment: Antimicrobial activity against Pseudomonas aeruginosa 1613-09
Pseudomonas aeruginosa [29] = experiment: Antimicrobial activity against Pseudomonas aeruginosa 1527-08
Pseudomonas aeruginosa [30] = experiment: Antimicrobial activity against Pseudomonas aeruginosa PA-4995
Pseudomonas aeruginosa [31] = experiment: Antimicrobial activity against Pseudomonas aeruginosa 1565-05
Pseudomonas aeruginosa [32] = experiment: Antimicrobial activity against Pseudomonas aeruginosa 1765-00
Pseudomonas aeruginosa [33] = experiment: Antimicrobial activity against Pseudomonas aeruginosa 1513-08
Pseudomonas aeruginosa [34] = experiment: Antimicrobial activity against Pseudomonas aeruginosa 1615-09
Pseudomonas aeruginosa [35] = experiment: Antimicrobial activity against Pseudomonas aeruginosa 1612-09
Pseudomonas aeruginosa [36] = experiment: Antimicrobial activity against Pseudomonas aeruginosa 1509-08
Pseudomonas aeruginosa [37] = experiment: Antimicrobial activity against Pseudomonas aeruginosa 1566-05
Pseudomonas aeruginosa [38] = experiment: Antimicrobial activity against Pseudomonas aeruginosa PA-4993
Pseudomonas aeruginosa [39] = experiment: Antimicrobial activity against Pseudomonas aeruginosa 1768-00
Pseudomonas aeruginosa [40] = experiment: Antimicrobial activity against Pseudomonas aeruginosa 1510-08
Pseudomonas aeruginosa [41] = experiment: Antimicrobial activity against Pseudomonas aeruginosa 1521-08
Pseudomonas aeruginosa [42] = experiment: Antimicrobial activity against Pseudomonas aeruginosa 1614-09
Pseudomonas aeruginosa [43] = experiment: Antimicrobial activity against Pseudomonas aeruginosa 1752-00
Pseudomonas aeruginosa [44] = experiment: Antimicrobial activity against Pseudomonas aeruginosa PA-75
Pseudomonas aeruginosa [45] = experiment: Antimicrobial activity against Pseudomonas aeruginosa 1526-08
Pseudomonas aeruginosa [46] = experiment: Antimicrobial activity against Pseudomonas aeruginosa 1561-05
Pseudomonas aeruginosa [47] = experiment: Antimicrobial activity against Pseudomonas aeruginosa 1952-00
Pseudomonas aeruginosa [48] = experiment: Antimicrobial activity against Pseudomonas aeruginosa 1951-00
Pseudomonas aeruginosa [49] = experiment: Antimicrobial activity against Pseudomonas aeruginosa 1766-00
Pseudomonas aeruginosa [50] = experiment: Antimicrobial activity against Pseudomonas aeruginosa 1955-00
Pseudomonas aeruginosa [51] = experiment: Antimicrobial activity against Pseudomonas aeruginosa 1764-00

**Q.** Which results are given for C[C@H](O)Cn1c(-c2cc(=O)c(O)c[nH]2)nn(S(=O)(=O)NC(=O)N2C(=O)[C@@H](NC(=O)/C(=N\OC(C)(C)C(=O)O)c3csc(N)n3)[C@@H]2C)c1=O?
**A.** MIC90 (Pseudomonas aeruginosa [1]): 0.5 µg/mL (≈ 0.702 µM); MIC90 (Pseudomonas aeruginosa [2]): 0.25 µg/mL (≈ 0.351 µM); MIC90 (Pseudomonas aeruginosa [3]): 0.25 µg/mL (≈ 0.351 µM); MIC90 (Pseudomonas aeruginosa [4]): 0.125 µg/mL (≈ 0.175 µM); MIC90 (Pseudomonas aeruginosa [5]): 0.5 µg/mL (≈ 0.702 µM); MIC90 (Pseudomonas aeruginosa [6]): 0.25 µg/mL (≈ 0.351 µM); MIC90 (Pseudomonas aeruginosa [7]): 0.125 µg/mL (≈ 0.175 µM); MIC90 (Pseudomonas aeruginosa [8]): 0.06 µg/mL (≈ 0.0842 µM); MIC90 (Pseudomonas aeruginosa [9]): 0.25 µg/mL (≈ 0.351 µM); MIC90 (Pseudomonas aeruginosa [10]): 0.25 µg/mL (≈ 0.351 µM); MIC90 (Pseudomonas aeruginosa [11]): 0.125 µg/mL (≈ 0.175 µM); MIC90 (Pseudomonas aeruginosa [12]): 0.5 µg/mL (≈ 0.702 µM); MIC90 (Pseudomonas aeruginosa [13]): 0.06 µg/mL (≈ 0.0842 µM); MIC90 (Pseudomonas aeruginosa [14]): 0.125 µg/mL (≈ 0.175 µM); MIC90 (Pseudomonas aeruginosa [15]): 0.03 µg/mL (≈ 0.0421 µM); MIC90 (Pseudomonas aeruginosa [16]): 0.25 µg/mL (≈ 0.351 µM); MIC90 (Pseudomonas aeruginosa [17]): 0.06 µg/mL (≈ 0.0842 µM); MIC90 (Pseudomonas aeruginosa [18]): 0.125 µg/mL (≈ 0.175 µM); MIC90 (Pseudomonas aeruginosa [19]): 0.5 µg/mL (≈ 0.702 µM); MIC90 (Pseudomonas aeruginosa [20]): 0.5 µg/mL (≈ 0.702 µM); MIC90 (Pseudomonas aeruginosa [21]): 0.06 µg/mL (≈ 0.0842 µM); MIC90 (Pseudomonas aeruginosa [22]): 4 µg/mL (≈ 5.61 µM); MIC90 (Pseudomonas aeruginosa [23]): 0.25 µg/mL (≈ 0.351 µM); MIC90 (Pseudomonas aeruginosa [24]): 0.5 µg/mL (≈ 0.702 µM); MIC90 (Pseudomonas aeruginosa [25]): 0.03 µg/mL (≈ 0.0421 µM); MIC90 (Pseudomonas aeruginosa [26]): 0.25 µg/mL (≈ 0.351 µM); MIC90 (Pseudomonas aeruginosa [27]): 0.125 µg/mL (≈ 0.175 µM); MIC90 (Pseudomonas aeruginosa [28]): 0.25 µg/mL (≈ 0.351 µM); MIC90 (Pseudomonas aeruginosa [29]): 0.25 µg/mL (≈ 0.351 µM); MIC90 (Pseudomonas aeruginosa [30]): 0.06 µg/mL (≈ 0.0842 µM); MIC90 (Pseudomonas aeruginosa [31]): 0.25 µg/mL (≈ 0.351 µM); MIC90 (Pseudomonas aeruginosa [32]): 0.5 µg/mL (≈ 0.702 µM); MIC90 (Pseudomonas aeruginosa [33]): 0.5 µg/mL (≈ 0.702 µM); MIC90 (Pseudomonas aeruginosa [34]): 0.25 µg/mL (≈ 0.351 µM); MIC90 (Pseudomonas aeruginosa [35]): 0.5 µg/mL (≈ 0.702 µM); MIC90 (Pseudomonas aeruginosa [36]): 0.5 µg/mL (≈ 0.702 µM); MIC90 (Pseudomonas aeruginosa [37]): 0.125 µg/mL (≈ 0.175 µM); MIC90 (Pseudomonas aeruginosa [38]): 0.25 µg/mL (≈ 0.351 µM); MIC90 (Pseudomonas aeruginosa [39]): 0.06 µg/mL (≈ 0.0842 µM); MIC90 (Pseudomonas aeruginosa [40]): 0.5 µg/mL (≈ 0.702 µM); MIC90 (Pseudomonas aeruginosa [41]): 0.5 µg/mL (≈ 0.702 µM); MIC90 (Pseudomonas aeruginosa [42]): 0.25 µg/mL (≈ 0.351 µM); MIC90 (Pseudomonas aeruginosa [43]): 0.25 µg/mL (≈ 0.351 µM); MIC90 (Pseudomonas aeruginosa [44]): 0.25 µg/mL (≈ 0.351 µM); MIC90 (Pseudomonas aeruginosa [45]): 0.125 µg/mL (≈ 0.175 µM); MIC90 (Pseudomonas aeruginosa [46]): 0.5 µg/mL (≈ 0.702 µM); MIC90 (Pseudomonas aeruginosa [47]): 0.25 µg/mL (≈ 0.351 µM); MIC90 (Pseudomonas aeruginosa [48]): 0.25 µg/mL (≈ 0.351 µM); MIC90 (Pseudomonas aeruginosa [49]): 1 µg/mL (≈ 1.4 µM); MIC90 (Pseudomonas aeruginosa [50]): 0.125 µg/mL (≈ 0.175 µM); MIC90 (Pseudomonas aeruginosa [51]): 0.06 µg/mL (≈ 0.0842 µM)
